Columns and labels:
redroot pigweed [1] = test: Test Example 5: herbicidal effect by foliage application, plastic box (Table 20, symbol N); assay type: in vivo, redroot pigweed (Amaranthus retroflexus); conditions: amount of applied herbicide 320 g/ha; foliage application after 14-day growth; evaluated three weeks after application
Procedure, shortened: (§1)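 Plants sown in sterilized diluvial soil and grown 14 days in a greenhouse at 25° C to 30° C, then sprayed on the foliage with the compound's emulsion diluted in water to a predetermined herbicide amount. Injury to weeds and crops scored three weeks after application on a visual rating scale.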

windgrass [2] = test: Test Example 5: herbicidal effect by foliage application, plastic box (Table 20, symbol L); assay type: in vivo, windgrass (Apera spica-venti); conditions: amount of applied herbicide 320 g/ha; foliage application after 14-day growth; evaluated three weeks after application
Procedure, shortened: as §1

rice flat sedge = test: Test Example 3: herbicidal effect by foliage application, Wagner pot (Table 18, symbol E); assay type: in vivo, rice flat sedge (Cyperus iria); conditions: 320 g/ha
Procedure, shortened: (§2)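 Plants were sown in alluvial soil held under 0.1–0.5 cm standing water and grown 14 days in a greenhouse at 25–30 °C. An emulsifiable formulation, water-diluted to the set dose, was then sprayed onto the foliage, and effects were scored three weeks later using previously defined criteria.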

chickweed [3] = test: Test Example 5: herbicidal effect by foliage application, plastic box (Table 20, symbol P); assay type: in vivo, common chickweed (Stellaria media); conditions: amount of applied herbicide 320 g/ha; foliage application after 14-day growth; evaluated three weeks after application
Procedure, shortened: as §1

wild oat [4] = test: Test Example 5: herbicidal effect by foliage application, plastic box (Table 20, symbol I); assay type: in vivo, wild oat (Avena fatua); conditions: amount of applied herbicide 320 g/ha; foliage application after 14-day growth; evaluated three weeks after application
Procedure, shortened: as §1

chickweed [5] = test: Test Example 4: herbicidal effect by soil treatment (Table 19, symbol P); assay type: in vivo, common chickweed (Stellaria media); conditions: amount of applied herbicide 320 g/ha
Procedure, shortened: (§3)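 Three weeks of greenhouse growth at 25° C. to 30° C. followed a uniform surface spray of water-diluted emulsion at a predetermined herbicide amount. Seeds had been sown beforehand under about 1.5 cm of sterilized diluvial soil. Grading followed criteria set out in an earlier test.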

wild oat [6] = test: Test Example 4: herbicidal effect by soil treatment (Table 19, symbol I); assay type: in vivo, wild oat (Avena fatua); conditions: amount of applied herbicide 320 g/ha
Procedure, shortened: as §3

green foxtail [7] = test: Test Example 5: herbicidal effect by foliage application, plastic box (Table 20, symbol G); assay type: in vivo, green foxtail (Setaria viridis); conditions: amount of applied herbicide 320 g/ha; foliage application after 14-day growth; evaluated three weeks after application
Procedure, shortened: as §1

velvetleaf [8] = test: Test Example 4: herbicidal effect by soil treatment (Table 19, symbol M); assay type: in vivo, velvetleaf (Abutilon theophrasti); conditions: amount of applied herbicide 320 g/ha
Procedure, shortened: as §3

southern crabgrass [9] = test: Test Example 4: herbicidal effect by soil treatment (Table 19, symbol F); assay type: in vivo, southern crabgrass (Digitaria ciliaris); conditions: amount of applied herbicide 320 g/ha
Procedure, shortened: as §3

barnyard grass [10] = test: Test Example 4: herbicidal effect by soil treatment (Table 19, symbol H); assay type: in vivo, barnyard grass (Echinochloa crus-galli); conditions: amount of applied herbicide 320 g/ha
Procedure, shortened: as §3

redroot pigweed [11] = test: Test Example 4: herbicidal effect by soil treatment (Table 19, symbol N); assay type: in vivo, redroot pigweed (Amaranthus retroflexus); conditions: amount of applied herbicide 320 g/ha
Procedure, shortened: as §3

green foxtail [12] = test: Test Example 4: herbicidal effect by soil treatment (Table 19, symbol G); assay type: in vivo, green foxtail (Setaria viridis); conditions: amount of applied herbicide 320 g/ha
Procedure, shortened: as §3

oval-leafed pondweed = test: Test Example 1: herbicidal activity, application before weed generation under submerged conditions (Table 16, symbol C); assay type: in vivo, oval-leafed pondweed (Monochoria vaginalis); conditions: amount of applied herbicide 320 g/ha
Procedure, shortened: (§4)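 Submerged Wagner pots (alluvial soil, 4 cm water) sown with weed seeds and planted with 2.5-leaf rice seedlings; emulsifiable concentrate diluted in water applied to water surface on sowing day. Held in greenhouse at 25-30 °C; injury scored 0-5 by herbicidal rate after three weeks.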

Japanese bulrush = test: Test Example 1: herbicidal activity, application before weed generation under submerged conditions (Table 16, symbol B); assay type: in vivo, Japanese bulrush (Schoenoplectus juncoides); conditions: amount of applied herbicide 320 g/ha
Procedure, shortened: as §4

blackgrass [13] = test: Test Example 4: herbicidal effect by soil treatment (Table 19, symbol J); assay type: in vivo, blackgrass (Alopecurus myosuroides); conditions: amount of applied herbicide 320 g/ha
Procedure, shortened: as §3

barnyard grass [14] = test: Test Example 5: herbicidal effect by foliage application, plastic box (Table 20, symbol H); assay type: in vivo, barnyard grass (Echinochloa crus-galli); conditions: amount of applied herbicide 320 g/ha; foliage application after 14-day growth; evaluated three weeks after application
Procedure, shortened: as §1

velvetleaf [15] = test: Test Example 5: herbicidal effect by foliage application, plastic box (Table 20, symbol M); assay type: in vivo, velvetleaf (Abutilon theophrasti); conditions: amount of applied herbicide 320 g/ha; foliage application after 14-day growth; evaluated three weeks after application
Procedure, shortened: as §1

Chinese sprangletop = test: Test Example 3: herbicidal effect by foliage application, Wagner pot (Table 18, symbol D); assay type: in vivo, chinese sprangletop (Leptochloa chinensis); conditions: 320 g/ha
Procedure, shortened: as §2

lambsquarters [16] = test: Test Example 5: herbicidal effect by foliage application, plastic box (Table 20, symbol O); assay type: in vivo, lambsquarters (Chenopodium album); conditions: amount of applied herbicide 320 g/ha; foliage application after 14-day growth; evaluated three weeks after application
Procedure, shortened: as §1

southern crabgrass [17] = test: Test Example 5: herbicidal effect by foliage application, plastic box (Table 20, symbol F); assay type: in vivo, southern crabgrass (Digitaria ciliaris); conditions: amount of applied herbicide 320 g/ha; foliage application after 14-day growth; evaluated three weeks after application
Procedure, shortened: as §1

persian speedwell = test: Test Example 5: herbicidal effect by foliage application, plastic box (Table 20, symbol R); assay type: in vivo, Persian speedwell (Veronica persica); conditions: amount of applied herbicide 320 g/ha; foliage application after 14-day growth; evaluated three weeks after application
Procedure, shortened: as §1

Italian ryegrass [18] = test: Test Example 4: herbicidal effect by soil treatment (Table 19, symbol K); assay type: in vivo, Italian ryegrass (Lolium multiflorum); conditions: amount of applied herbicide 320 g/ha
Procedure, shortened: as §3

windgrass [19] = test: Test Example 4: herbicidal effect by soil treatment (Table 19, symbol L); assay type: in vivo, windgrass (Apera spica-venti); conditions: amount of applied herbicide 320 g/ha
Procedure, shortened: as §3

late watergrass = test: Test Example 1: herbicidal activity, application before weed generation under submerged conditions (Table 16, symbol A); assay type: in vivo, late watergrass (Echinochloa oryzicola); conditions: amount of applied herbicide 320 g/ha
Procedure, shortened: as §4

lambsquarters [20] = test: Test Example 4: herbicidal effect by soil treatment (Table 19, symbol O); assay type: in vivo, lambsquarters (Chenopodium album); conditions: amount of applied herbicide 320 g/ha
Procedure, shortened: as §3

barnyard grass [21] = test: Test Example 3: herbicidal effect by foliage application, Wagner pot (Table 18, symbol H); assay type: in vivo, barnyard grass (Echinochloa crus-galli); conditions: 320 g/ha
Procedure, shortened: as §2

blackgrass [22] = test: Test Example 5: herbicidal effect by foliage application, plastic box (Table 20, symbol J); assay type: in vivo, blackgrass (Alopecurus myosuroides); conditions: amount of applied herbicide 320 g/ha; foliage application after 14-day growth; evaluated three weeks after application
Procedure, shortened: as §1

Italian ryegrass [23] = test: Test Example 5: herbicidal effect by foliage application, plastic box (Table 20, symbol K); assay type: in vivo, Italian ryegrass (Lolium multiflorum); conditions: amount of applied herbicide 320 g/ha; foliage application after 14-day growth; evaluated three weeks after application
Procedure, shortened: as §1

CCCC(=O)Oc1c(C)nn(C)c(=O)c1-c1c(-c2ccc3c(c2)OCCO3)sc2cc(F)c(F)cc12 [5-038]
Herbicidal effect by foliage application, N: redroot pigweed (redroot pigweed [1]): 2 (Herbicidal rate of 20% or more and less than 40%)
Herbicidal effect by foliage application, L: windgrass (windgrass [2]): 0 (Herbicidal rate of 5% or less (almost no effect))
herbicidal effect on rice flat sedge (E) (rice flat sedge): 4 (Herbicidal rate of 70% or more and less than 90%)
Herbicidal effect by foliage application, P: chickweed (chickweed [3]): 5 (Herbicidal rate of 90% or more (almost completely withered))
Herbicidal effect by foliage application, I: wild oat (wild oat [4]): 0 (Herbicidal rate of 5% or less (almost no effect))
P: chickweed, herbicidal effect grade (chickweed [5]): 0 (Herbicidal rate of 5% or less (almost no effect))
I: wild oat, herbicidal effect grade (wild oat [6]): 0 (Herbicidal rate of 5% or less (almost no effect))
Herbicidal effect by foliage application, G: green foxtail (green foxtail [7]): 0 (Herbicidal rate of 5% or less (almost no effect))
M: velvetleaf, herbicidal effect grade (velvetleaf [8]): 0 (Herbicidal rate of 5% or less (almost no effect))
F: southern crabgrass, herbicidal effect grade (southern crabgrass [9]): 0 (Herbicidal rate of 5% or less (almost no effect))
H: barnyard grass, herbicidal effect grade (barnyard grass [10]): 0 (Herbicidal rate of 5% or less (almost no effect))
N: redroot pigweed, herbicidal effect grade (redroot pigweed [11]): 2 (Herbicidal rate of 20% or more and less than 40%)
G: green foxtail, herbicidal effect grade (green foxtail [12]): 0 (Herbicidal rate of 5% or less (almost no effect))
Herbicidal effect, C: oval-leafed pondweed (oval-leafed pondweed): 4 (Herbicidal rate of 70% or more and less than 90%)
Herbicidal effect, B: Japanese bulrush (Japanese bulrush): 3 (Herbicidal rate of 40% or more and less than 70%)
J: blackgrass, herbicidal effect grade (blackgrass [13]): 0 (Herbicidal rate of 5% or less (almost no effect))
Herbicidal effect by foliage application, H: barnyard grass (barnyard grass [14]): 0 (Herbicidal rate of 5% or less (almost no effect))
Herbicidal effect by foliage application, M: velvetleaf (velvetleaf [15]): 3 (Herbicidal rate of 40% or more and less than 70%)
herbicidal effect on Chinese sprangletop (D) (Chinese sprangletop): 2 (Herbicidal rate of 20% or more and less than 40%)
Herbicidal effect by foliage application, O: lambsquarters (lambsquarters [16]): 1 (Herbicidal rate of 5% or more and less than 20%)
Herbicidal effect by foliage application, F: southern crabgrass (southern crabgrass [17]): 0 (Herbicidal rate of 5% or less (almost no effect))
Herbicidal effect by foliage application, R: persian speedwell (persian speedwell): 5 (Herbicidal rate of 90% or more (almost completely withered))
K: Italian ryegrass, herbicidal effect grade (Italian ryegrass [18]): 0 (Herbicidal rate of 5% or less (almost no effect))
L: windgrass, herbicidal effect grade (windgrass [19]): 0 (Herbicidal rate of 5% or less (almost no effect))
Herbicidal effect, A: late watergrass (late watergrass): 4 (Herbicidal rate of 70% or more and less than 90%)
O: lambsquarters, herbicidal effect grade (lambsquarters [20]): 4 (Herbicidal rate of 70% or more and less than 90%)
herbicidal effect on barnyard grass (H) (barnyard grass [21]): 2 (Herbicidal rate of 20% or more and less than 40%)
Herbicidal effect by foliage application, J: blackgrass (blackgrass [22]): 0 (Herbicidal rate of 5% or less (almost no effect))
Herbicidal effect by foliage application, K: Italian ryegrass (Italian ryegrass [23]): 0 (Herbicidal rate of 5% or less (almost no effect))

From patent publication US20230085307A1, “PYRIDAZINONE COMPOUND AND HERBICIDE” (NISSAN CHEMICAL CORPORATION, priority 2019, published 2023)
